In patent publication US7572606B1 (Nereus Pharmaceuticals, Inc., priority 2005, dated 2009):
“Also recorded” adds a separate entry of the source.

Assays:
[1] = system: Jurkat; assay: Cytotoxicity against Jurkat cells; assay type: cell-based, human
[2] = system: 60 human tumor cell lines; assay: NCI screening panel, values over all cell lines; assay type: cell-based
[3] = system: PARP and Pro-Caspase 3 in PC-3 cells; assay: PARP and Pro-Caspase 3 cleavage, western blot; assay type: cell-based, human; details: 100 nM for 0, 8 or 24 hours
Description: (§1) Total protein lysates were made and 20 μg of the lysates were then resolved under reducing/denaturing conditions and blotted onto nitrocellulose. The blots were then probed with anti-PARP or anti-caspase 3 antibodies followed by stripping and reprobing with an anti-actin antibody.

[4] = system: HL-60(TB); details: Leukemia
[5] = system: LPS-induced plasma TNF; assay: Inhibition of in vivo LPS-induced TNF; set-up: species or system male Swiss Webster mice; details: 0.125 or […] i.v., 30 minutes post-LPS (2 mg/kg i.p.)
Description: The following methods outline the protocol design for these studies.
Male Swiss Webster mice (12/group weighing 20-25 g) were injected with LPS (2 mg/kg) by the i.p. route. […] Ninety minutes after LPS injection, the mice were anesthetized with Isoflurane and bled by cardiac puncture to obtain plasma. Remaining blood pellet was then resuspended in 500 μL of PBS to wash away residual serum proteins and centrifuged again. Supernatant was removed and blood pellet frozen for analysis of proteasome inhibition in packed whole blood lysate.
Animals were dosed i.v. with 4 ml/kg. A vehicle control solution was also prepared by making the same 1:160 dilution with 100% DMSO into 10% solutol solution giving a final concentration of 9.375% solutol in water and 0.625% DMSO. Measurements of plasma TNF were performed using the Biosource mTNF Cytoset kit (Biosource Intl., Camarillo, Calif.; catalog # CMC3014) according to manufacturer's instructions. Samples were diluted 1:60 for the assay.

[6] = system: PARP and Pro-Caspase 3 in RPMI 8226 cells; assay: PARP and Pro-Caspase 3 cleavage, western blot; assay type: cell-based, human; details: 100 nM for 0, 8 or 24 hours; varying concentrations for 8 hours
Description: as §1
25 μg of the lysates were then resolved under reducing/denaturing conditions and blotted onto nitrocellulose. The blots were then probed with anti-PARP or anti-caspase 3 antibodies followed by stripping and reprobing with an anti-actin antibody.

[7] = system: VEGF-induced migration of multiple myeloma cells; assay: Transwell migration assay; assay type: cell-based
Description: The compounds disclosed herein inhibit angiogenesis. […] The other compounds disclosed herein are tested in a transwell migration assay and inhibit migration.

[8] = system: CCD-27sk; assay: Cytotoxic activity, 48 h, normal fibroblasts; assay type: cell-based; details: CCD-27sk normal human fibroblasts
[9] = biological target: caspase-like (PGPH) activity of rabbit muscle 20S proteasome (Oryctolagus cuniculus, UniProt A0A5F9DQW2); assay: In vitro inhibition of 20S proteasome, Z-LLE-AMC; details: read-out: EC50 Caspase-like (PGPH); purified rabbit 20S proteasome, Z-LLE-AMC
[10] = mean graph midpoint over all cell lines

Sequence of caspase-like (PGPH) activity of rabbit muscle 20S proteasome (A0A5F9DQW2 1-212): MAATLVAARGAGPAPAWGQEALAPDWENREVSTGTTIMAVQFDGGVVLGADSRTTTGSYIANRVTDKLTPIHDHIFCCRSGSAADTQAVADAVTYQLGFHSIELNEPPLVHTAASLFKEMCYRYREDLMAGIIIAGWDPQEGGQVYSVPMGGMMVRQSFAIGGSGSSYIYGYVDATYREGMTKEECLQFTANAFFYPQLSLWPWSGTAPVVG

Structure (SMILES)	EC50 ([1]; Homo sapiens, Jurkat)	% max cell kill ([1]; Jurkat cells)	GI50 ([2]; Homo sapiens, read-out: mean GI50 value)	Deka Log10 G150 ([2]; log units)	Deka Log10 TGI ([2]; log units)	Range Log10 G150 ([2]; log units)	Range Log10 TGI ([2]; log units)	MG_MID Log10 G150 [2, 10]	MG_MID Log10 TGI [2, 10]	cleavage of PARP and Pro-Caspase 3 [3]	Log10 G150 [4]	Log10 TGI [4]	reduction of LPS-induced plasma TNF levels [5]	cleavage of PARP and Pro-Caspase 3 [6]	VEGF-induced migration of multiple myeloma cells [7]	EC50 [8]	EC50 [9]
C[C@@]12OC(=O)[C@]1([C@@H](O)[C@@H]1C=CCCC1)NC(=O)[C@@H]2CCCl [Formula II-16, Salinosporamide A]	0.01 µM	97%	< 0.01 µM	0.00	1.21	0.00	4.00	-8.00 Molar	-6.79 Molar	cleavage of PARP is noticeable at 24 hours	<-8.00 Molar	-4.32 Molar	approximately 65%	cleavage of PARP and Pro-caspase 3 in a time-dependent manner; also recorded: dose-dependent cleavage of both PARP and Pro-Caspase 3	blocked vascular endothelial growth-factor (VEGF)-induced migration of multiple myeloma cells	0.196 µM	–
C[C@H]1C(=O)N[C@@]2([C@@H](O)[C@@H]3C=CCCC3)C(=O)O[C@@]12C [Formula II-20]	–	–	–	–	–	–	–	–	–	–	–	–	–	–	–	–	1.42 µM
